Patent US20090069271A1, “WOOD TREATMENT” (priority 2005, published 2009)
Like-named read-outs stand apart in the source and are kept apart here.

Tests used:
[1] = Pseudo three-dimensional hydrolysis test, sample layered on distilled water; type: physicochemical; details: sample layered on distilled water in a test tube; 20 mls sample layered on 10 mls distilled water in 19 mm test tube
Protocol: A pseudo three-dimensional test was made by taking 10 mls of distilled water and placing in a 19 mm diameter test tube. 20 mls of sample was then layered on the water; the rate of hydrolysis was then measured. This was done by taking 2 ml samples from the test tube over time, refluxing and titrating the 2 ml samples to get the concentration. The test was with n-butyl di-n-propyl borate, which should have similar kinetic properties to tri-n-propyl borate and tri-n-butyl borate. The test was also done with tri-n-octyl borate.
It can be seen that there is an exponential difference in the half-life when changing the conditions of hydrolysis. For the commercial method of which the patent covers, the hydrolysis rate is slow enough to give consistent uptake of product in the timber and provide stable solution concentration.

[2] = aqueous dioxane, tri-(dicyclohexylcarbinyl) borate = 1, cited from earlier work
[3] = base catalysed hydrolysis, 60% aqueous dioxane at 21°; cited from earlier work

Row | Structure (SMILES) | Relative rate of hydrolysis [2] | also measured
1 | CCCCOB(OCCC)OCCC [n-butyl di-n-propyl borate] | – | Half-life [1]: 6.5 h
2 | CCCCCOB(OCCCCC)OCCCCC [Tri-n-amyl borate] | 5.87 × 10^5 | Half-life [3]: 1.0 s
3 | c1ccc([C@@H]2CCCC[C@H]2OB(O[C@@H]2CCCC[C@H]2c2ccccc2)O[C@@H]2CCCC[C@H]2c2ccccc2)cc1 (relative stereo) [Tri-(trans-2-phenylcylohexyl) borate] | 40.0 | –
4 | c1ccc([C@H]2CCCC[C@H]2OB(O[C@@H]2CCCC[C@@H]2c2ccccc2)O[C@@H]2CCCC[C@@H]2c2ccccc2)cc1 (relative stereo) [Tri-(cis-2-phenylcyclohexyl) borate] | 28.2 | –
5 | CCCCC(CC)OB(OC(CC)CCCC)OC(CC)CCCC (centres unmarked) [Tri-3-heptyl borate] | 415 | –
6 | CCCCCCCCCCCCOB(OCCCCCCCCCCCC)OCCCCCCCCCCCC [Tri-n-dodecyl borate] | 2.77 × 10^4 | Relative rate of hydrolysis ([2]; listed as Tri-dodecyl borate): 2.77×10^4; Half-life [3]: 21.3 s
7 | CC(C)(C)OB(OC(C)(C)C)OC(C)(C)C [Tri-t-butyl borate] | 1370 | –
8 | CCCOB(OCCC)OCCC [Tri-n-propyl borate] | – | Half-life(sec.) [3]: Too fast to measure
9 | C1CCC(C(OB(OC(C2CCCCC2)C2CCCCC2)OC(C2CCCCC2)C2CCCCC2)C2CCCCC2)CC1 [Tri-(dicyclohexylcarbinyl) borate] | 1 | –
10 | COB(OC)OC [Trimethyl borate] | – | Half-life(sec.) [3]: Too fast to measure
11 | C1CCC(OB(OC2CCCCC2)OC2CCCCC2)CC1 [Tri-(2-cyclohexyl) borate] | 3.67 | –
12 | CCCCCCCC/C=C\CCCCCCCCOB(OCCCCCCCC/C=C\CCCCCCCC)OCCCCCCCC/C=C\CCCCCCCC [Trioleyl borate] | 3.57 × 10^4 | –
13 | C#CC1(OB(OC2(C#C)CCCCC2)OC2(C#C)CCCCC2)CCCCC1 [Tri-(1-ethynylcyclohexyl) borate] | 4.29 × 10^4 | –
14 | CCCCC(CC)COB(OCC(CC)CCCC)OCC(CC)CCCC (centres unmarked) [Tri-(2-ethylhexyl) borate] | 2.77 × 10^3 | –
15 | CC(C)CC(C)CC(CC(C)C)OB(OC(CC(C)C)CC(C)CC(C)C)OC(CC(C)C)CC(C)CC(C)C (centres unmarked) [Tri-(2,6,8-trimethyl-4-nonyl) borate] | 4.83 | –
16 | CCC(CC)OB(OC(CC)CC)OC(CC)CC [Tri-3-pentyl borate] | 483 | –
17 | CCCCCCCCCCCCCCCCCCOB(OCCCCCCCCCCCCCCCCCC)OCCCCCCCCCCCCCCCCCC [Tristearyl borate] | 2.71 × 10^4 | Half-life [3]: 21.7 s
18 | CCC(C)(C)OB(OC(C)(C)CC)OC(C)(C)CC [Tri-t-amyl borate] | 449 | –
19 | c1ccc(C2CCCCC2OB(OC2CCCCC2c2ccccc2)OC2CCCCC2c2ccccc2)cc1 (centres unmarked) [Tri-(2-phenylcyclohexyl) borate] | 34.1 | –
20 | CCCCCCOB(OCCCCCC)OCCCCCC [Tri-hexyl borate] | 2.02 × 10^5 | Half-life [3]: 2.9 s
21 | CCCCCCC(C)OB(OC(C)CCCCCC)OC(C)CCCCCC (centres unmarked) [Tri-2-octyl borate] | 4.33 × 10^3 | –
22 | CCOB(OCC)OCC [Triethyl borate] | – | Half-life(sec.) [3]: Too fast to measure
23 | CCCCOB(OCCCC)OCCCC [Tri-n-butyl borate] | – | Half-life [1]: 89 h; Half-life(sec.) [3]: Too fast to measure
24 | CCCCCCCCOB(OCCCCCCCC)OCCCCCCCC [Tri-n-octyl borate] | 3.67 × 10^4 | Half-life [3]: 16.0 s
25 | CC(C)CC(CC(C)C)OB(OC(CC(C)C)CC(C)C)OC(CC(C)C)CC(C)C [Tri-(diisobutylcarbinyl) borate] | 5.86 | –
26 | CC(C)CC(C)OB(OC(C)CC(C)C)OC(C)CC(C)C (centres unmarked) [Tri-(methylisobutylcarbinyl) borate] | 2430 | –
27 | CCCC1OB(OCC(CC)C(CCC)OB2OCC(CC)C(CCC)O2)OCC1CC (centres unmarked) [Tri-(octylene glycol) biborate] | 3.92 × 10^5 | –
28 | CCC(C)OB(OC(C)CC)OC(C)CC (centres unmarked) [Tri-s-butyl borate] | 1.68 × 10^5 | –
